SMILES strings stand for the structures.

Our source for the EC50 values is ChEMBL document CHEMBL5725623, “4-azaindole derivatives” (2018).

The nature of the test: Positive allosteric modulator pEC50 values and antagonist pIC50 values for each compound were then determined. […] Data analysis was carried out using a 4 parameter logistic nonlinear regression model with the XLFIT (IDBS) excel add-in10. 1-10 Examples 76-80 and 82-89 were tested in a slightly modified procedure. The points of modification and the alternate reagents, concentrations or equipment employed in these examples were: 1200 μg/ml hygromycin B; 2G418 not added; 3CELLBANKER 1; 410E6; 5 40 μl; 6 1 in 99; 7 20 μl; 8FDSS6000 (Hamamatsu Photonics); 9(480Ex, 540Em); 10Spotfire (TIBCO).As measured by the above in vitro assay, compound Examples 1 to 105 are positive allosteric modulators of mAChR M1 displaying the pEC50 values for positive allosteric modulation given in Table 2. The following applies: 0.5 h.

As to `COc1cc(Cn2cc(C(=O)NC3CCOC[C@@H]3O)c3nccc(C)c32)ccn1` (stereo partly specified), the EC50 stood at 50.1 nM.

In the case of `Cc1ccnc2c(C(=O)NC3CCOC[C@@H]3O)cn(Cc3ccc(F)cc3)c12` (stereo partly specified), the concentration for a half-maximal effect (EC50) came to 15.8 nM.

Take `COc1ccc(Cn2cc(C(=O)NC3CCOC[C@@H]3O)c3nccc(C)c32)cc1F` (stereo partly specified): the EC50 was 12.6 nM.

`COc1ccc(Cn2cc(C(=O)NC3CCOC[C@@H]3O)c3nccc(C)c32)cc1` (stereo partly specified): the EC50 was determined as 10 nM.

`O=C(NC1CCC(F)(F)C[C@H]1O)c1cn(Cc2ccc(F)cc2)c2cccnc12` (stereo partly specified): the EC50 is 794 nM.

As for `COc1ccc(Cn2cc(C(=O)NC3CCOC[C@@H]3O)c3nccc(Cl)c32)cc1` (stereo partly specified), the 50% effective concentration (EC50) stood at 12.6 nM.
